Type in all cases: in vitro ADME
A short description of data set [1]: In vitro metabolic stability (CLint), rat. To be noted: intrinsic clearance, incubation 0-30 minutes at 37° C. with NADPH regenerating system. As for the experimental part: (§1) The objective of this study was to determine metabolic stability of test items in preclinical species and human liver microsomes. Verapamil and dextromethorphan were used as positive controls for microsomal incubation.
(§2) Incubation medium was prepared by combining 11.2 mL of potassium phosphate monobasic and 38.8 mL of potassium phosphate dibasic, diluted to 1 L with water. Cryopreserved microsomes were thawed and kept on ice until use. Microsomes were then diluted in incubation to a protein concentration of 0.56 mg/mL. Cells were centrifuged, re-suspended in medium and counted by means of a haemocytometer. Cell viability was measured using the Trypan Blue exclusion test.
(§3) NADPH regenerating system solution was prepared by dissolving 1.7 mg of NADP, 7.8 mg of G6P and 6 units of G6P-Dehydrogenase in 1 mL of 2% sodium bicarbonate solution (prepared by dissolving 20 g of NaHCO3 in 1 L of water).
(§4) Test compounds were separately dissolved in DMF to obtain 10 mM stock solutions that were further diluted in water/acetonitrile 50/50 (v/v) to obtain the corresponding 50 uM working solutions. Verapamil and dextromethorphan were dissolved in DMF in order to obtain a 10 mM verapamil solution and 10 mM dextromethorphan solution. These solutions were then diluted in the incubation medium in order to obtain a 50 uM verapamil working solution and a 50 uM dextromethorphan working solution.
(§5) 800 μL-aliquots of NADPH regenerating system were pre-warmed at 37° C. for 5 minutes. […]
(§6) Metabolic stability was calculated from the peak area ratio of the remaining test compound with internal standard versus time. The intrinsic clearance (CLint) was determined from the first order elimination constant k (min^−1) (obtained from GraphPad by plotting the natural logarithm of the peak area ratio of the remaining test item with internal standard versus time), using the actual volume of the incubation V (mL), the amount of hepatocytes in the incubation M (million cells) and the hepatocellularity number per g liver Hn (120 for human).

The target in the next data set is CYP2C9 (Homo sapiens, UniProt P11712). Put plainly: CYP450 inhibition, pro-fluorescent probe substrate (2C9/FCA). To be noted: recombinant human CYP450, substrate FCA; top concentration 5.00E-05.
A short description of data set [2]: In vitro metabolic stability (CLint), human. To be noted: intrinsic clearance, incubation 0-30 minutes at 37° C. with NADPH regenerating system. As for the experimental part:
as §1, §2, §3, §4, §5, §6

The next data set concerns the target CYP2D6 (Homo sapiens, UniProt P10635). Description: CYP450 inhibition, pro-fluorescent probe substrate (2D6/MMMC). To be noted: recombinant human CYP450, substrate MMMC; top concentration 5.00E-05.

A value given as a limit tells only on which side of the number the result lay.

Chain of CYP2D6 (P10635 whole entry): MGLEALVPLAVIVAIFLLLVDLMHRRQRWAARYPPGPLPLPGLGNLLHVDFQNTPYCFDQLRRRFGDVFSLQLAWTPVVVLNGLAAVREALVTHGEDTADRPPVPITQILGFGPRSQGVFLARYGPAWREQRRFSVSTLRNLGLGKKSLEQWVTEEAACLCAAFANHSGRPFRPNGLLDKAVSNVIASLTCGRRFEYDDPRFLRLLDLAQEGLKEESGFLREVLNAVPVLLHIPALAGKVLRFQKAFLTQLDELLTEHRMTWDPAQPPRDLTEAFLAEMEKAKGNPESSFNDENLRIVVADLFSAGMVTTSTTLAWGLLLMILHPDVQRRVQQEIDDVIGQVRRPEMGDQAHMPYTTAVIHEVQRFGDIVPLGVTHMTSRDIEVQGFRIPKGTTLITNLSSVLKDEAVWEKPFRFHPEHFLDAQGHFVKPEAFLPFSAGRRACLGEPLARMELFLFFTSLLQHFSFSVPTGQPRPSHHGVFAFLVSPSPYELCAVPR
Chain of CYP2C9 (P11712 whole entry): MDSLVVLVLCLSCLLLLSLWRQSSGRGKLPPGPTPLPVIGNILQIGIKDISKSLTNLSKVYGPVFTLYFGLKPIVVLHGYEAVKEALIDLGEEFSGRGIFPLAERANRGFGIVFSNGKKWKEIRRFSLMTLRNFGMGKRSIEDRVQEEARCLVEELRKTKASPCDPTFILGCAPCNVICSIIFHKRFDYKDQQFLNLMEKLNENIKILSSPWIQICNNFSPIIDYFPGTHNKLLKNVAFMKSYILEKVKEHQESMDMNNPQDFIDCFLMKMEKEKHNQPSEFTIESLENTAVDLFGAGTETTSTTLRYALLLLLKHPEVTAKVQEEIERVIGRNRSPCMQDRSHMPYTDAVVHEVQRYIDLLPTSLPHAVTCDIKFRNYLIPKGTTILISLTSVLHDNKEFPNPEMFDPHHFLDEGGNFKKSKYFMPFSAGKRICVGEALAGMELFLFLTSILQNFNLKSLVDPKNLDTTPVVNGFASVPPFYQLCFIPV

As usually defined, the IC50 is the concentration that inhibits the measured activity by half. `Cc1ccc(Oc2ccc(N3C(=O)NC(C)(C)C3=O)c(N)n2)c2c1OCC21CC1` [Example 1, 3-[2-amino-6-(7-methylspiro[2H-benzofuran-3,1′-cyclopropane]-4-yl)oxy-3-pyridyl]-5,5-dimethyl-imidazolidine-2,4-dione] yielded a CLi rat in data set [1] of 5.4 mL/min/g liver. The IC50 is 8.6 µM on CYP2C9 and > 50 µM on CYP2D6. The CLi human in data set [2] was 1.1 mL/min/g liver.
In the case of `CC1(C)NC(=O)N(c2ccc(Oc3cccc(OC(F)(F)F)c3)nc2N)C1=O` [Example 9, 3-[2-amino-6-[3-(trifluoromethoxy)phenoxy]-3-pyridyl]-5,5-dimethyl-imidazolidine-2,4-dione], the CLi rat in data set [1] is recorded as <0.5 mL/min/g liver. Besides, the concentration for half-maximal inhibition (IC50) on CYP2C9 and at CYP2D6 was > 50 µM throughout. The CLi human in data set [2] is given as <0.5 mL/min/g liver.
Molecule `COc1nc(Oc2ccc(C)c3c2C2(CC2)CO3)ccc1N1C(=O)NC(C)(C)C1=O` [Reference Example 2, reference compound] returned a CLi rat in data set [1] of 8.7 mL/min/g liver. For the same molecule, the IC50 was 0.1 µM on CYP2C9 and > 50 µM on CYP2D6. In data set [2], this molecule gave a CLi human of 2.0 mL/min/g liver.

These data come from patent US20260199309A1, “COMPOUNDS FOR THE TREATMENT OF CENTRA NERVOUS SYSTEM DISORDERS” (Autifony Therapeutics Limited, priority 2022, published 2026).
